“Also recorded” adds a separate entry of the source. Where two headings read alike, the source gives them in different places.
How the values were obtained:
C57BL/6J mice = system: C57BL/6J mice
Description: Since PD, HD, and ALS share aspects of pathogenesis and pathology of motor dysfunction, gait dynamics were also studied in the SOD1 G93A transgenic mouse model of ALS (Gurney et al. Science 1994, 264: 1772-1775) to compare gait variability in mouse models of basal ganglia disease to a mouse model of motor neuron disease. Male C57BL/6J mice (7-8 weeks; ˜22 gm) were purchased from The Jackson Laboratory (Bar Harbor, Me.). Mice transgenic for the mutated human SOD1 G93A (TgN[SOD1-G93A]lGur) (SOD1 G93A) and wild-type human SOD1 (TgN[SOD1]2Gur) (wild-type controls) were purchased from The Jackson Laboratory (Bar Harbor, ME) when the mice were ˜7.5 weeks old. Animals were maintained on a 12-hour light: 12-hour dark schedule with ad libitum access to food and water. Handling and care of mice were consistent with federal guidelines and approved institutional protocols.
MPTP. A mouse model of PD was generated in the following manner. The dopaminergic neurotoxin 1-methyl-4-phenyl-1,2,3,6-tetrahydropyridine (MPTP) (Sigma-Aldrich, St. Louis, Mo.) was dissolved in saline and was administered 30 mg/kg i.p. to 7 mice every 24 hours for 3 days (MPTP-treated mice), based on previously published studies (Colotla et al. Neurotoxicol Teratol 1990, 12: 405-407; Shimoji et al. Brain Res Mol Brain Res 2005, 134:103-108). Equivolume (0.2 ml) of saline was administered i.p. to 7 control mice every 24 hours for 3 days (saline-treated mice).
3NP. A mouse model of HD was generated in the following manner. The mitochondrial toxin 3-nitropropionic acid (3NP) (Sigma-Aldrich, St. Louis, Mo.) was dissolved in saline and was administered 3 times to 6 mice: 25 mg/kg i.p. twice, separated by 12 hours (cumulative dose of 50 mg/kg), then 25 mg/kg 24 hours later (cumulative dose of 75 mg/kg) (3NP-treated mice). Equivolume (0.2 ml) of saline was administered i.p. according to the same schedule to 6 control mice.
(§1) Gait dynamics were recorded using ventral plane videography, as previously described (Kale et al. Alcohol Clin Exp Res 2004, 28: 1839-1848; Hampton et al. Physiol Behav 2004, 82: 381-389). Briefly, a motor-driven treadmill with a transparent treadmill belt was built. A high-speed digital video camera was mounted below the transparent treadmill belt. An acrylic compartment, ˜5 cm wide by ˜25 cm long, the length of which was adjustable, was mounted on top of the treadmill to maintain the mouse that was walking on the treadmill belt within the view of the camera. Digital video images of the underside of mice were collected at 80 frames per second. Accordingly, each image obtained represented a 12.5 ms time interval; and the paw area of each image indicated the temporal placement of the paw relative to the treadmill belt. The color images were converted to their binary matrix equivalents, and the areas (in pixels) of the approaching or retreating paws relative to the belt and camera were calculated throughout each stride. Plotting the area of each digital paw print (paw contact area) imaged sequentially in time provided a dynamic gait signal, representing the temporal record of paw placement relative to the treadmill belt (refer to FIGS. 1A and 1B). From these digital paw print images, indices of gait and gait variability were determined. Each gait signal for each limb comprised a stride duration (stride time), which included the stance duration when the paw of a limb was in contact with the walking surface, plus the swing duration when the paw of the same limb was not in contact with the walking surface. Stance duration was further subdivided into braking duration (increasing paw contact area over time) and propulsion duration (decreasing paw contact area over time) (refer to FIG. 1B).
Stride frequency was calculated by counting the number of gait signals over time. Stride length was calculated from the equation: speed=stride frequency X stride length.

mice = details: cited from earlier work
rats = details: MPTP 3 mg/kg; rats (Tsai et al.); cited from earlier work
ALS patients = details: cited from earlier work
SOD1 G93A mice = experiment: Propranolol in drinking water of the SOD1 G93A mouse model of ALS (gait, walking ability, survival, body weight); type: in vivo
Description: as §1, with “Briefly,” for “Gait dynamics were recorded using ventral plane videography, as previously described (Kale et al. Alcohol Clin Exp Res 2004, 28: 1839-1848; Hampton et al. Physiol Behav 2004, 82: 381-389). Briefly,”, “Accordingly, each image obtained represented a 12.5 ms time interval; and the paw area of each image indicated the temporal placement of the paw relative to the treadmill belt.” left out
Stride frequency was calculated by counting the number of gait signals over time. Stride length was calculated from the equation: speed=stride frequency X stride length. To obtain stance widths and paw placement angles at full stance, ellipses were fitted to the paws, and the centers, vertices, and major axes of the ellipses were determined. Forelimb and hind limb stance widths were calculated as the perpendicular distance between the major axes of the left and right paw images during peak stance. Gait data were collected and pooled from both the left and right forelimbs, and the left and right hind limbs.
Accordingly, five SOD1 G93A mice were treated with propranolol, the drug having been added to their drinking water beginning at six weeks of age.

[1] = 3NP 75 mg/kg cumulative dose, 34 cm/s, n=3
[2] = 3NP 75 mg/kg cumulative dose, mice that could walk
[3] = 3NP 75 mg/kg cumulative, two mice with hind limb gait failure, forelimb stepping only
[4] = after 2nd administration of 3NP (50 mg/kg cumulative)
[5] = cumulative dose of 560 mg/kg of 3NP
[6] = MPTP 90 mg/kg cumulative dose, 34 cm/s
[7] = MPTP after 3 treatments, 34 cm/s
[8] = MPTP, 3 administrations of 30 mg/kg, 34 cm/s

**Q.** Which “stride length” value (C57BL/6J mice; 3NP 75 mg/kg cumulative dose i.p., 34 cm/s, n=3 mice that could walk) does the source give for `O=C(O)CC[N+](=O)[O-]` [3NP, 3-nitropropionic acid] here?
**A.** 7.3 ± 0.1 cm

**Q.** What about the “% Stance Duration” value (C57BL/6J mice; [1]) of the same compound?
**A.** 59.4±2.3%

**Q.** What about the “% Swing Duration” value (C57BL/6J mice; [1]) of the same compound?
**A.** 40.6±2.3%

**Q.** What about the “Forelimb Paw Placement Angle” value (C57BL/6J mice; [1]) of the same compound?
**A.** 3.5 ± 1.1 °

**Q.** And the “Forelimb Stance Width” value (C57BL/6J mice; [1])?
**A.** 1.7 ± 0.1 cm

**Q.** What about the “Hind limb Paw Placement Angle” value (C57BL/6J mice; [1]) of the same compound?
**A.** 15.2±1.0 °

**Q.** And the “Hind limb Stance Width” value (C57BL/6J mice; [1])?
**A.** 2.8±0.2 cm

**Q.** And the “Stride Duration” value (C57BL/6J mice; [1])?
**A.** 217 ± 5 ms

**Q.** What about the “Stride Frequency” value (C57BL/6J mice; [1]) of the same compound?
**A.** 4.9 ± 0.1 Hz

**Q.** And the “percentage of stance duration spent in propulsion (propulsion/stance) of the hind limbs” value (C57BL/6J mice; [1])?
**A.** 45.2±2.5%

**Q.** And the “CV of forelimb stance width” value (C57BL/6J mice; [2])?
**A.** 17.3±2.4%

**Q.** And the “CV of forelimb stride length” value (C57BL/6J mice; [2])?
**A.** 17.9±1.6%

**Q.** What about the “Stance width variability of the forelimbs” value (C57BL/6J mice; [2]) of the same compound?
**A.** 0.31±0.04 cm

**Q.** And the “Hind limb stride length variability and hind limb stance width variability” value (C57BL/6J mice; 3NP 75 mg/kg cumulative dose, mice that could walk, vs saline-treated mice)?
**A.** not different

**Q.** And the “Stride length variability of the forelimbs” value (C57BL/6J mice; 3NP 75 mg/kg cumulative dose, three mice that could walk)?
**A.** 1.31±0.09 cm

**Q.** And the “stance duration (forelimbs)” value (C57BL/6J mice; [3])?
**A.** 133 ± 5 ms

**Q.** What about the “stride frequency (forelimbs)” value (C57BL/6J mice; [3]) of the same compound?
**A.** 5.0±0.1 Hz

**Q.** And the “stride length of forelimbs” value (C57BL/6J mice; [3])?
**A.** 7.1±0.1 cm

**Q.** What about the “Stride length, stride frequency, stance duration, and swing duration” value (C57BL/6J mice; after 1st and 2nd administrations of 25 mg/kg 3NP) of the same compound?
**A.** not affected

**Q.** What about the “CV of forelimb stance width” value (C57BL/6J mice; [4]) of the same compound?
**A.** 15.0±1.2%

**Q.** What about the “Stance width variability of the forelimbs” value (C57BL/6J mice; [4]) of the same compound?
**A.** 0.28±0.01 cm

**Q.** What about the “stride length variability and stance width variability of the hind limbs” value (C57BL/6J mice; [4]) of the same compound?
**A.** Neither stride length variability nor stance width variability of the hind limbs was affected

**Q.** And the “paw placement angle of the hind limbs” value (C57BL/6J mice; after 2nd administration of 3NP (cumulative dose of 50 mg/kg), n=6)?
**A.** 16.6±1.2 °

**Q.** And the “3NP-treated mice that could not walk on the treadmill belt” value (C57BL/6J mice; after 3rd administration (75 mg/kg cumulative dose), 34 cm/s, 6 mice)?
**A.** half

**Q.** And the “effect of aggressive doses” value (C57BL/6J mice; aggressive (higher) doses of 3NP, data not shown)?
**A.** high mortality or the inability of the mice to walk at all on the treadmill belt

**Q.** What about the forelimb stride length (mice; [5]) of the same compound?
**A.** comparable to saline-treated mice

**Q.** And the “hind limb stride length” value (mice; [5])?
**A.** shortened

**Q.** What about the “stride length of forelimbs and hind limbs” value (mice; cumulative dose of 3NP 340 mg/kg) of the same compound?
**A.** no differences

**Q.** Which results are given for `CN1CC=C(c2ccccc2)CC1` [MPTP, 1-methyl-4-phenyl-1,2,3,6-tetrahydropyridine]?
**A.** Forelimb Paw Placement Angle (C57BL/6J mice; [6]): 2.6 ± 0.4 °; Forelimb Stance Width (C57BL/6J mice; [6]): 1.6 ± 0.1 cm; Hind limb Paw Placement Angle (C57BL/6J mice; [6]): 10.8 ± 1.3 °; Hind limb Stance Width (C57BL/6J mice; [6]): 2.2 ± 0.1 cm; Stride Duration (C57BL/6J mice; MPTP 90 mg/kg cumulative dose, 34 cm/s, n=7): 194 ± 1 ms; % Stance Duration (C57BL/6J mice; MPTP 90 mg/kg cumulative dose, 34 cm/s, stance/stride): 55.9 ± 1.1%; % Swing Duration (C57BL/6J mice; MPTP 90 mg/kg cumulative dose, 34 cm/s, swing/stride): 44.1 ± 1.1%; CV of forelimb stance width (C57BL/6J mice; [7]): 16.7±1.3%; CV of hind limb stance width (C57BL/6J mice; [7]): 9.1±1.1%; Stance width variability of the forelimbs (C57BL/6J mice; [7]): 0.26±0.01 cm; Stance width variability of the hind limbs (C57BL/6J mice; [7]): 0.20±0.02 cm; coefficient of variation (CV) of forelimb stride length (C57BL/6J mice; [7]): 13.6±0.8%; CV of hind limb stride length (C57BL/6J mice; MPTP after 3 treatments, 34 cm/s, NS vs saline): 10.0±1.5%; Stride length variability of the forelimbs (C57BL/6J mice; MPTP after 3 treatments, standard deviation, 34 cm/s): 0.91±0.04 cm; Stride length variability of the hind limbs (C57BL/6J mice; MPTP after 3 treatments, vs saline-treated mice): not different; stance duration of the forelimbs (C57BL/6J mice; [8]): 116 ± 2 ms; swing duration of the hind limbs (C57BL/6J mice; [8]): 92 ± 3 ms; stride length (rats): significantly reduce stride length

**Q.** With `Nc1nc2ccc(OC(F)(F)F)cc2s1` [Riluzole] as the compound, how does the side effects (ALS patients) read?
**A.** causes liver damage

**Q.** For `CC(C)NCC(O)COc1cccc2ccccc12` (centres unmarked) [propranolol], which “increase in paw placement angle variability with disease progression” value (SOD1 G93A mice; age 12 weeks through 18 weeks) is on record?
**A.** blunted or prevented; also recorded: prevented or diminished

**Q.** What about the “extent of gait disturbances” value (SOD1 G93A mice; propranolol in drinking water from age ~42 days, five mice) of the same compound?
**A.** mitigated and delayed

**Q.** And the stride length (SOD1 G93A mice; propranolol in drinking water, vs longer strides with untreated tap water)?
**A.** more normal

**Q.** And the body weight (SOD1 G93A mice; relative to tap water-treated control mice, FIG. 8)?
**A.** reduction in body weight

**Q.** What about the “mice that could successfully walk on a moving treadmill belt” value (SOD1 G93A mice; ~16 weeks of age, tap water controls one out of five) of the same compound?
**A.** three out of five

**Q.** What about the mice surviving (SOD1 G93A mice; ~age 17 weeks, five mice per group, tap water controls one) of the same compound?
**A.** 3

Source: patent US20070021421A1 (priority 2005, published 2007)
